For six compounds, mutagenic call results are on record in PubChem BioAssay AID1259407 (Chemical Carcinogenesis Research Information System (CCRIS), 2018).

For the data set, the system named is CCRIS mutagenicity, Ames/micronucleus/aberration tests. As to the kind of experiment: CCRIS mutagenicity studies.
Where [1] appears, read: Test System: AMES SALMONELLA TYPHIMURIUM, Strain/Indicator: TA98, Metabolic Activation: NONE, Method: PREINCUBATION
[2] abbreviates: Test System: AMES SALMONELLA TYPHIMURIUM, Strain/Indicator: TA98, Metabolic Activation: S-9, Method: PREINCUBATION
The mark [3] stands for this setting: Test System: AMES SALMONELLA TYPHIMURIUM, Strain/Indicator: TA100, Metabolic Activation: NONE, Method: PREINCUBATION
Where [4] appears, read: Test System: AMES SALMONELLA TYPHIMURIUM, Strain/Indicator: TA100, Metabolic Activation: S-9, Method: PREINCUBATION
The mark [5] stands for this setting: Test System: AMES SALMONELLA TYPHIMURIUM, Strain/Indicator: TA98, Metabolic Activation: NONE, Method: STANDARD PLATE.
Where [6] appears, read: Test System: AMES SALMONELLA TYPHIMURIUM, Strain/Indicator: TA100, Metabolic Activation: NONE, Method: STANDARD PLATE.

SMILES strings stand for the structures. Calls of active or inactive are those of the source. The rule behind the calls is not given here.

On to `Cc1c(N)nc(C(CC(N)=O)NCC(N)C(N)=O)nc1C(=O)NC(C(=O)NC(C)C(O)C(C)C(=O)NC(C(=O)NCCc1nc(-c2nc(C(=O)NCCC[S+](C)C)cs2)cs1)C(C)O)C(O[C@@H]1O[C@@H](CO)[C@@H](O)[C@H](O)[C@@H]1O[C@H]1O[C@H](CO)[C@@H](O)[C@H](OC(N)=O)[C@@H]1O)c1cnc[nH]1` (some centres undefined), for which the mutagenic call was “active; positive” (End Point: IN VITRO MICRONUCLEUS, Test System: CHO CELLS, Metabolic Activation: RAT, LIVER, S-9, AROCLOR 1254); “inactive; positive for gstt1-null and xd polymorphisms and spontaneous and bleomycin-induc” (End Point: In vitro micronucleus, Test System: Human lymphocytes from 200 volunteers (128 women, 72 men), Metabolic Activation: None); “inactive; negative” under setting [1]; “inactive; negative” under setting [2]; “inactive; negative” under setting [3]; “inactive; negative” under setting [4]. For the same compound, the mutagenic call reads like this: (Test System: AMES SALMONELLA TYPHIMURIUM, Strain/Indicator: TA102, Metabolic Activation: NONE, Method: STANDARD PLATE) “active; positive”; (Test System: AMES SALMONELLA TYPHIMURIUM, Strain/Indicator: TA2638A, Metabolic Activation: NONE, Method: STANDARD PLATE) “inactive; negative”.
Consider `COc1cc(OC)c(Cl)c(-n2c(-c3ccccc3)cc(=O)c(C)c2-c2ccc(F)cc2)c1`, for which the mutagenic call runs as follows: under setting [1], “inactive; negative”; under setting [2], “inactive; negative”; under setting [3], “inactive; negative”; under setting [4], “inactive; negative”; (Test System: AMES SALMONELLA TYPHIMURIUM, Strain/Indicator: TA102, Metabolic Activation: NONE, Method: PREINCUBATION) “inactive; negative”; (Test System: AMES SALMONELLA TYPHIMURIUM, Strain/Indicator: TA102, Metabolic Activation: S-9, Method: PREINCUBATION) “inactive; negative”. Further, the mutagenic call reads like this: (Test System: AMES SALMONELLA TYPHIMURIUM, Strain/Indicator: TA1535, Metabolic Activation: NONE, Method: PREINCUBATION) “inactive; negative”; (Test System: AMES SALMONELLA TYPHIMURIUM, Strain/Indicator: TA1535, Metabolic Activation: S-9, Method: PREINCUBATION) “inactive; negative”; (Test System: AMES SALMONELLA TYPHIMURIUM, Strain/Indicator: TA1537, Metabolic Activation: NONE, Method: PREINCUBATION) “inactive; negative”; (Test System: AMES SALMONELLA TYPHIMURIUM, Strain/Indicator: TA1537, Metabolic Activation: S-9, Method: PREINCUBATION) “inactive; negative”; (Test System: E. COLI, Strain/Indicator: WP2 UVRA, Metabolic Activation: NONE, Method: PREINCUBATION) “inactive; negative”; (Test System: E. COLI, Strain/Indicator: WP2 UVRA, Metabolic Activation: S-9, Method: PREINCUBATION) “inactive; negative”.
For the compound `CCc1cc(O)cc2c3c([nH]c12)C(CC)(CC(=O)O)OCC3` (centres undefined), the mutagenic call runs as follows: under setting [5], “active; positive”; (Test System: AMES SALMONELLA TYPHIMURIUM, Strain/Indicator: TA98, Metabolic Activation: RAT, LIVER, S-9 (10 OR 50 µL/PLATE), Method: STANDARD PLATE) “inactive; negative”; under setting [6], “inactive; negative”; (Test System: AMES SALMONELLA TYPHIMURIUM, Strain/Indicator: TA100, Metabolic Activation: RAT, LIVER, S-9 (10 OR 50 µL/PLATE), Method: STANDARD PLATE) “inactive; negative”; (Test System: AMES SALMONELLA TYPHIMURIUM, Strain/Indicator: TA1535, Metabolic Activation: NONE, Method: STANDARD PLATE) “inactive; negative”; (Test System: AMES SALMONELLA TYPHIMURIUM, Strain/Indicator: TA1535, Metabolic Activation: RAT, LIVER, S-9 (10 OR 50 µL/PLATE), Method: STANDARD PLATE) “inactive; negative”. Besides, the mutagenic call is, setting by setting: (Test System: AMES SALMONELLA TYPHIMURIUM, Strain/Indicator: TA1537, Metabolic Activation: NONE, Method: STANDARD PLATE) “inactive; negative”; (Test System: AMES SALMONELLA TYPHIMURIUM, Strain/Indicator: TA1537, Metabolic Activation: RAT, LIVER, S-9 (10 OR 50 µL/PLATE), Method: STANDARD PLATE) “inactive; negative”; (Test System: E. COLI, Strain/Indicator: WP2 UVRA, Metabolic Activation: NONE, Method: STANDARD PLATE) “inactive; negative”; (Test System: E. COLI, Strain/Indicator: WP2 UVRA, Metabolic Activation: RAT, LIVER, S-9 (10 OR 50 µL/PLATE), Method: STANDARD PLATE) “inactive; negative”.
As to `CC(=O)[C@]1(O)Cc2c(O)c3c(c(O)c2[C@@H](O)C1)C(=O)c1c(O)cccc1C3=O`, the mutagenic call was “active; positive” under setting [5]; “active; positive” (Test System: AMES SALMONELLA TYPHIMURIUM, Strain/Indicator: TA98, Metabolic Activation: RAT, LIVER, S-9, AROCLOR 1254, Method: STANDARD PLATE); “inactive; negative” under setting [6]; “inactive; negative” (Test System: AMES SALMONELLA TYPHIMURIUM, Strain/Indicator: TA1538, Metabolic Activation: NONE, Method: STANDARD PLATE).
With `O=S(=O)(O)Oc1ccc2cc3ccc4cccc5ccc(c2c1)c3c45`, the mutagenic call is, setting by setting: under setting [1], “inactive; negative”; (Test System: AMES SALMONELLA TYPHIMURIUM, Strain/Indicator: TA98, Metabolic Activation: RAT, LUNG, S-9, Method: PREINCUBATION) “inactive; negative”.
`Cc1cccc2ccc3cc4ccccc4cc3c12`: the mutagenic call (Test System: AMES SALMONELLA TYPHIMURIUM, Strain/Indicator: TA100, Metabolic Activation: RAT, INTACT HEPATOCYTES, AROCLOR 1254, Method: PREINCUBATION) was “active; positive”; the mutagenic call (Test System: AMES SALMONELLA TYPHIMURIUM, Strain/Indicator: TA100, Metabolic Activation: RAT, NADPH-FORTIFIED HOMOGENIZED HEPATOCYTES, AROCLOR 1254, Method: PREINCUBATION) is “active; positive”; the mutagenic call (Test System: AMES SALMONELLA TYPHIMURIUM, Strain/Indicator: TA100, Metabolic Activation: RAT, SONICATED HEPATOCYTES, AROCLOR 1254, Method: PREINCUBATION) was “active; positive”.
